# According to patent US9745291B2, “PRMT5 inhibitors containing a dihydro- or tetrahydroisoquinoline and uses thereof” (Epizyme, Inc., priority 2012, dated 2017):
# Key:
# [1] = biological target: PRMT5/MEP50 (Homo sapiens (Human), UniProt O14744); assay: PRMT5 Biochemical Assay (PRMT5/MEP50 enzyme assay on peptide substrate, 3H-SAM Flashplate); settings: PRMT5 biochemical assay; read-out: Biochemical IC50
# Description: S-adenosylmethionine (SAM), S-adenosylhomocysteine (SAH), bicine, KCl, Tween20, dimethylsulfoxide (DMSO), bovine skin gelatin (BSG), and Tris(2-carboxyethyl)phosphine hydrochloride solution (TCEP) were purchased from Sigma-Aldrich at the highest level of purity possible. ^3H-SAM was purchase from American Radiolabeled Chemicals with a specific activity of 80 Ci/mmol. 384-well streptavidin Flashplates were purchased from PerkinElmer.
# Peptide representative of human histone H4 residues 1-15 was synthesized with a C-terminal linker-affinity tag motif and a C-terminal amide cap by 21st Century Biochemicals. […] The sequence was Ac-[…][K-Biot]-amide (SEQ ID NO.:3).
# Full-length human MEP50 (NM_024102) clone was amplified from a human testis cDNA library incorporating a 5′ sequence encoding a 6-histidine tag (MHHHHHH)(SEQ ID NO.:5) fused directly to Arg 2 of MEP50. The amplified genes were sublconed into pENTR/D/TEV (Life Technologies) and subsequently transferred by Gateway™ attL×attR recombination to pDEST8 baculvirus expression vector (Life Technologies).
# Recombinant baculovirus and Baculovirus-Infected Insect Cells (BIIC) were generated according to Bac-to-Bac kit instructions (Life Technologies) and Wasilko, 2006, respectively. Protein over-expression was accomplished by infecting exponentially growing Spodoptera frugiperda (SF9) cell culture at 1.2×10^6 cell/ml with a 5000 fold dilution of BIIC stock. Infections were carried out at 27° C. for 72 hours, harvested by centrifugation, and stored at −80° C. for purification.
# Flag-PRMT5/6His-MeP50 was eluted with 300 mM Imidazole in the same buffer. […] Reference: Wasilko, D. J. and S. E. Lee: “TIPS: titerless infected-cells preservation and scale-up” Bioprocess J., 5 (2006), pp. 29-32.
# General Procedure for PRMT5/MEP50 Enzyme Assays on Peptide Substrates.
# The assays were all performed in a buffer consisting of 20 mM Bicine (pH=7.6), 1 mM TCEP, 0.005% BSG, and 0.002% Tween20, prepared on the day of use. Compounds in 100% DMSO (1 ul) were spotted into a polypropylene 384-well V-bottom plates (Greiner) using a Platemate Plus outfitted with a 384-channel head (Thermo Scientific). DMSO (1 ul) was added to Columns 11, 12, 23, 24, rows A-H for the maximum signal control and 1 ul of SAH, a known product and inhibitor of PRMT5/MEP50, was added to columns 11, 12, 23, 24, rows I-P for the minimum signal control. A cocktail (40 ul) containing the PRMT5/MEP50 enzyme and the peptide was added by Multidrop Combi (Thermo-Fisher). The compounds were allowed to incubate with PRMT5/MEP50 for 30 min at 25 degrees Celsius, then a cocktail (10 ul) containing ^3H-SAM was added to initiate the reaction (final volume=51 ul).
# [2] = test system: Z-138 cell line; assay: Z-138 Proliferation Assay (Cell Titer Glo, 5 days); assay type: cell-based; settings: Homo sapiens, Z-138, 120 h, Z-138 cells
# Description: [formula] Z-138 Proliferation Assay
# Z-138 suspension cells were purchased from ATCC (American Type Culture Collection, Manassas, Va.). RPMI/Glutamax medium, penicillin-streptomycin, heat inactivated fetal bovine serum were purchased from Life Technologies, Grand Island, N.Y., USA. V-bottom polypropylene 384-well plates were purchased from Greiner Bio-One, Monroe, N.C., USA. Cell culture 384-well white opaque plates were purchased from Perkin Elmer, Waltham, Mass., USA. Cell-Titer Glo® was purchased from Promega Corporation, Madison, Wis., USA. SpectraMax M5 plate reader was purchased from Molecular Devices LLC, Sunnyvale, Calif., USA.
# Z-138 suspension cells were maintained in growth medium (RPMI 1640 supplemented with 10% v/v heat inactivated fetal bovine serum and cultured at 37° C. under 5% CO2 Under assay conditions, cells were incubated in assay medium (RPMI 1640 supplemented with 10% v/v heat inactivated fetal bovine serum and 100 units/mL penicillin-streptomycin) at 37° C. under 5% CO2.
# For the assessment of the effect of compounds on the proliferation of the Z-138 cell line, exponentially growing cells were plated in 384-well white opaque plates at a density of 10,000 cells/ml in a final volume of 50 μl of assay medium. A compound source plate was prepared by performing triplicate nine-point 3-fold serial dilutions in DMSO, beginning at 10 mM (final top concentration of compound in the assay was 20 μM and the DMSO was 0.2%). A 100 nL aliquot from the compound stock plate was added to its respective well in the cell plate. […] After addition of compounds, assay plates were incubated for 5 days at 37° C., 5% CO2, relative humidity >90%.
# Cell viability was measured by quantitation of ATP present in the cell cultures, adding 35 μl of Cell Titer Glo® reagent to the cell plates. Luminescence was read in the SpectraMax M5 microplate reader. The concentration of compound inhibiting cell viability by 50% was determined using a 4-parametric fit of the normalized dose response curves.
# [3] = test system: symmetric di-methyl arginine in Z-138 cells; assay: Z-138 Methylation Assay (In Cell Western for symmetric di-methyl arginine and DNA content); assay type: cell-based; settings: Homo sapiens, Z-138, Z-138 cells, read-out: ICW EC50
# Description: [formula] Where top and bottom are the normally allowed to float, but may be fixed at 100 or 0 respectively in a 3-parameter fit. The Hill Coefficient normally allowed to float but may also be fixed at 1 in a 3-parameter fit. Y is the % inhibition and X is the compound concentration. Z-138 Methylation Assay
# Z-138 suspension cells were purchased from ATCC (American Type Culture Collection, Manassas, Va.). RPMI/Glutamax medium, penicillin-streptomycin, heat inactivated fetal bovine serum, and D-PBS were purchased from Life Technologies, Grand Island, N.Y., USA. Odyssey blocking buffer, 800CW goat anti-rabbit IgG (H+L) antibody, and Licor Odyssey infrared scanner were purchased from Licor Biosciences, Lincoln, Nebr., USA. Symmetric di-methyl arginine antibody was purchased from EMD Millipore, Billerica, Mass., USA. 16% Paraformaldehyde was purchased from Electron Microscopy Sciences, Hatfield, Pa., USA.
# Z-138 suspension cells were maintained in growth medium (RPMI 1640 supplemented with 10% v/v heat inactivated fetal bovine serum and 100 units/mL penicillin-streptomycin) and cultured at 37° C. under 5% CO2.
# Cell Treatment, in Cell Western (ICW) for Detection of Symmetric Di-Methyl Arginine and DNA Content.
# Z-138 cells were seeded in assay medium at a concentration of 50,000 cells per mL to a 384-well cell culture plate with 50 μL per well. Compound (100 nL) from 384 well source plates was added directly to 384 well cell plate. Plates were incubated at 37° C., 5% CO2 for 96 hours. After four days of incubation, 40 μL of cells from incubated plates were added to poly-D-lysine coated 384 well culture plates (BD Biosciences 356697). Plates were incubated at room temperature for 30 minutes then incubated at 37° C., 5% CO2 for 5 hours. After the incubation, 40 μL per well of 8% paraformaldehyde in PBS (16% paraformaldahyde was diluted to 8% in PBS) was added to each plate and incubated for 30 minutes. Plates were transferred to a Biotek 405 plate washer and washed 5 times with 100 μL per well of wash buffer (1×PBS with 0.1% Triton X-100 (v/v)). Next 30 μL per well of Odyssey blocking buffer were added to each plate and incubated 1 hour at room temperature. Blocking buffer was removed and 20 μL per well of primary antibody was added (symmetric di-methyl arginine diluted 1:100 in Odyssey buffer with 0.1% Tween 20 (v/v)) and plates were incubated overnight (16 hours) at 4° C. Plates were washed 5 times with 100 μL per well of wash buffer. Next 20 μL per well of secondary antibody was added (1:200 800CW goat anti-rabbit IgG (H+L) antibody, 1:1000 DRAQ5 (Biostatus limited) in Odyssey buffer with 0.1% Tween 20 (v/v)) and incubated for 1 hour at room temperature. The plates were washed 5 times with 100 μL per well wash buffer then 1 time with 100 μL per well of water. Plates were allowed to dry at room temperature then imaged on the Licor Odyssey machine which measures integrated intensity at 700 nm and 800 nm wavelengths. Both 700 and 800 channels were scanned.
# First, the ratio for each well was determined by:
# Each plate included fourteen control wells of DMSO only treatment (minimum inhibition) as well as fourteen control wells for maximum inhibition treated with 3 μM of a reference compound (Background wells). The average of the ratio values for each control type was calculated and used to determine the percent inhibition for each test well in the plate. Reference compound was serially diluted three-fold in DMSO for a total of nine test concentrations, beginning at 3 μM. Percent inhibition was determined and IC50 curves were generated using triplicate wells per concentration of compound. […]
# PRMT5/MEP50, sequence (O14744 other isoform, or with tags, fused parts or gaps): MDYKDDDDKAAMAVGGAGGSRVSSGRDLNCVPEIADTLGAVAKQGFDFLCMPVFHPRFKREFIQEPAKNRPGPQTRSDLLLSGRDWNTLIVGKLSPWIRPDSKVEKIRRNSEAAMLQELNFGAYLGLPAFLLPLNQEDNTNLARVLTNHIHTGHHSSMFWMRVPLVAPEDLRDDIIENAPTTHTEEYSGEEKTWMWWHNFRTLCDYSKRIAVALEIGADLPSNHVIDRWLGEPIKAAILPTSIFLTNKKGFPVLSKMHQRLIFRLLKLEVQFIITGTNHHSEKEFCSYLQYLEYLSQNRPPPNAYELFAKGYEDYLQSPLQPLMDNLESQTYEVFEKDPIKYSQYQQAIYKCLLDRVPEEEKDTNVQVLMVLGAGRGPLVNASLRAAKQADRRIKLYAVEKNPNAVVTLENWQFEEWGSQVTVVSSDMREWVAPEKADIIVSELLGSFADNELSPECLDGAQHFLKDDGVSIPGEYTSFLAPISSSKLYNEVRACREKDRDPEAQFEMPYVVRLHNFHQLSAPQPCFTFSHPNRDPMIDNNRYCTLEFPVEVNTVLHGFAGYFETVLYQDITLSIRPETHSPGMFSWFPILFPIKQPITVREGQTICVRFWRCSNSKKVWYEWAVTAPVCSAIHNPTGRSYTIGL
# PRMT5/MEP50, sequence (Q9BQA1 other isoform, or with tags, fused parts or gaps partner): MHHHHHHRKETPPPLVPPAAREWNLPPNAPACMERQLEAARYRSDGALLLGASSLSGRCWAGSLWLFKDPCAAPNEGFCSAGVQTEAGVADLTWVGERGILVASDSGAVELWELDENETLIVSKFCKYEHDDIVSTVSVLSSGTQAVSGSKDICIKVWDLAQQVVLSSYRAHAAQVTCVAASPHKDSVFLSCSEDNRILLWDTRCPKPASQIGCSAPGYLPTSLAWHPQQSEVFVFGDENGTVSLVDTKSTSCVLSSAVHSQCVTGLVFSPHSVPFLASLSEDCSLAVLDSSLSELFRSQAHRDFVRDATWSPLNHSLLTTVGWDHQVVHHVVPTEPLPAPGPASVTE
Structure (SMILES),IC50 [1] [µM],EC50 [3] [µM],EC50 [2] [µM]
"O=C(COc1cccc2cccnc12)NCC(O)CN1CCc2ccccc2C1 (centres unmarked) [Compound 6, N-(3-(3,4-dihydroisoquinolin-2(1H)-yl)-2-hydroxypropyl)-2-(quinolin-8-yloxy)acetamide]",< 0.1,,0.101 to 1
"O=C(COc1cccc2cccnc12)NC[C@H](O)CN1CCc2ccccc2C1 [Compound 44, (S)—N-(3-(3,4-dihydroisoquinolin-2(1H)-yl)-2-hydroxypropyl)-2-(quinolin-8-yloxy)acetamide]",,0.101 to 1,
"O=C(COc1cccc2cccnc12)NC[C@@H](O)CN1CCc2ccccc2C1 [Compound 45, (R)—N-(3-(3,4-dihydroisoquinolin-2(1H)-yl)-2-hydroxypropyl)-2-(quinolin-8-yloxy)acetamide]",< 0.1,,0.101 to 1
O=C(COc1ccccc1N1CCNCC1)NCC(O)CN1CCc2ccccc2C1 (centres unmarked) [Compound 79],< 0.1,,1 to 10
O=C(COc1cccc(-n2ccnc2)c1)NC[C@@H](O)CN1CCc2ccccc2C1 [Compound 194],0.101 to 1,> 1,> 20
CN(CCN)S(=O)(=O)c1ccccc1OCC(=O)NC[C@@H](O)CN1CCc2ccccc2C1 [Compound 198],< 0.1,> 1,> 20
CC(=O)Nc1cccc(OCC(=O)NC[C@@H](O)CN2CCc3ccccc3C2)c1C1CCCNC1 (some centres unmarked) [Compound 199],1 to 10,> 1,> 20
CC1CNCCN1S(=O)(=O)c1ccccc1OCC(=O)NC[C@@H](O)CN1CCc2ccccc2C1 (some centres unmarked) [Compound 202],< 0.1,0.101 to 1,10 to 50
Cc1ccc2[nH]c(CCC(=O)NC[C@@H](O)CN3CCc4ccccc4C3)nc2c1 [Compound 207],0.101 to 1,0.101 to 1,10 to 50
O=C(CCc1nc2cc(Cl)ccc2[nH]1)NC[C@@H](O)CN1CCc2ccccc2C1 [Compound 208],0.101 to 1,0.101 to 1,10 to 50

# Now from value to compound, other results behind:
IC50 [1] [µM],EC50 [3] [µM],Structure (SMILES),EC50 [2] [µM]
,0.101 to 1,O=C(COc1ccccc1C1CCCNC1)NCC(O)CN1CCc2ccccc2C1 (centres unmarked) [Compound 117],1 to 10
1 to 10,> 1,O=C(COc1cccc(-c2c[nH]cn2)c1)NC[C@@H](O)CN1CCc2ccccc2C1 [Compound 195],> 20
0.101 to 1,> 1,O=C(COc1cccc(C(=O)NCCNCCO)c1)NC[C@@H](O)CN1CCc2ccccc2C1 [Compound 196],> 20
< 0.1,0.101 to 1,O=C(COc1cccc(N2CCNCC2)c1)NC[C@@H](O)CN1CCc2ccccc2C1 [Compound 197],10 to 50
1 to 10,> 1,O=C(CCc1nc2ccccc2o1)NC[C@@H](O)CN1CCc2ccccc2C1 [Compound 200],> 20
< 0.1,< 0.1,CNCCN(C)S(=O)(=O)c1ccccc1OCC(=O)NC[C@@H](O)CN1CCc2ccccc2C1 [Compound 201],1 to 10
0.101 to 1,0.101 to 1,CC1CN(C)CCN1S(=O)(=O)c1ccccc1OCC(=O)NC[C@@H](O)CN1CCc2ccccc2C1 (some centres unmarked) [Compound 203],> 20
0.101 to 1,> 1,CC(Oc1ccccc1[C@@H]1CCCNC1)C(=O)NC[C@@H](O)CN1CCc2ccccc2C1 (some centres unmarked) [Compound 204],10 to 50
1 to 10,> 1,CC(Oc1ccccc1[C@H]1CCCNC1)C(=O)NC[C@@H](O)CN1CCc2ccccc2C1 (some centres unmarked) [Compound 205],10 to 50
1 to 10,> 1,O=C(CCn1cnc2ccccc21)NC[C@@H](O)CN1CCc2ccccc2C1 [Compound 206],> 20
0.101 to 1,0.101 to 1,CN(C[C@@H](O)CN1CCc2ccccc2C1)C(=O)CCc1nc2ccccc2[nH]1 [Compound 209],10 to 50
0.101 to 1,0.101 to 1,CC1CN(S(=O)(=O)c2ccccc2OCC(=O)NC[C@@H](O)CN2CCc3ccccc3C2)CCN1 (some centres unmarked) [Compound 210],10 to 50
,< 0.1,CN(C)S(=O)(=O)c1c(OCC(=O)NC[C@@H](O)CN2CCc3ccccc3C2)cccc1N1CCNCC1 [Compound 252],< 0.1
